The text below walks through data of patent US20250154198A1, “PEPTIDE INHIBITORS OF INTERLEUKIN-23 RECEPTOR” (Zealand Pharma A/S, priority 2021, published 2025).

Test [1] has as its target IL-23 mediated phospho-STAT3 formation in DB cells (Homo sapiens, UniProt Q5VWK5). As to the kind of experiment: Functional inhibition of IL-23 mediated STAT3 signalling (phospho-STAT3 Tyr705 MSD) in DB cells. Format: cell-based. As to conditions: DB cells, read-out: IC50 (pSTAT3). The text has this: Functional Inhibition of IL-23 Mediated STAT3 Signalling by Compounds
Upon binding of IL-23, the IL-23R forms a heterodimer signalling complex together with IL-12R β1, which through the JAK2/STAT3 pathway promotes phosphorylation of STAT3 to form phospho-STAT3.
The assay was used to quantify the functional antagonism of a compound and to rank order the inhibitor compounds according to their potency. For compounds tested in this assay, the response was normalized relative to control values to calculate the IC50 and maximal inhibitory response from a concentration response curve of the compound in presence of a fixed concentration of human IL-23.
The assay procedure was as follows. […] Following preincubation of the DB cells with inhibitor for 15 min in a cell incubator (37° C., 5% CO2), 20 μL of the prepared 3× the EC80 of hIL-23 solution was added to each well and incubated for 90 min in a cell incubator (37° C., 5% CO2). For some wells buffer only or IL-23 only corresponding to the EC80 was added to obtain readouts needed for normalization. To terminate the assay, the plate was spun at 1000 G for 5 min to pellet cells, the supernatant removed using an 8-channel manual pipette, and then added 50 μL/well Complete Lysis Buffer from the MSD STAT3 kit (Cat #K150SVD, Mesoscale) to the cell pellet. To completely lyse cells to release phospho-STAT3 for detection, the plate was shaken for 10 min at room temperature (500 rpm) sealed with aluminum foil and placed at −80° C. for a minimum of 15 min. Detection of the phospho-STAT3 level in the cell lysate from the individual wells was determined using the MSD STAT3 kit (Cat #K150SVD, Mesoscale) and read on a Meso QuickPlex SQ 120 plate reader (Mesoscale).
For data analysis raw data counts from the Meso QuickPlex SQ 120 plate reader were normalized relative to the response by the EC80 of hIL-23 alone (no compound added) and the buffer level. Compound potency (IC50) and maximal inhibitory response (% inhibition) were estimated by computer-aided curve fitting using a 4-parameter logistic (4PL) non-linear model.

The next test deals with T1, human IL-23R (Homo sapiens, UniProt Q5VWK5).
T1 construct: UniProtKB—Q5VWK5, amino acids 22-629; secretion signal of the plasmid (Promega N1371); expressed in transfected cells
T1 sequence (Q5VWK5 22-629): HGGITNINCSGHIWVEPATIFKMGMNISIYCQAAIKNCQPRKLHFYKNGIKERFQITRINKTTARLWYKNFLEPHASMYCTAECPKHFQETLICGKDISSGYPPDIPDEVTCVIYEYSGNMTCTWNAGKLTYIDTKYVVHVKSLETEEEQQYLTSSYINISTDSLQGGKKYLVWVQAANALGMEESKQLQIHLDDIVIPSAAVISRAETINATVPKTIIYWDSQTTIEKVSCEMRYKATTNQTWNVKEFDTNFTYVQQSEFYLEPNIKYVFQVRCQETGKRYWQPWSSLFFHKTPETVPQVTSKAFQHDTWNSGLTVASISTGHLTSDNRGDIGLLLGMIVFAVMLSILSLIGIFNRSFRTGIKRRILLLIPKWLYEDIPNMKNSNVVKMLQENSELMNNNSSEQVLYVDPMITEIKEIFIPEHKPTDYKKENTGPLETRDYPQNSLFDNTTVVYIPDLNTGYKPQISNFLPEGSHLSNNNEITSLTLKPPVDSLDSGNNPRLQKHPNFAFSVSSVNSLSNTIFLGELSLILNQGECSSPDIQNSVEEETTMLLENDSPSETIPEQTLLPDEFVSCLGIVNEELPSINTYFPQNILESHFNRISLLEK
Kind of test: Binding assay (NanoBRET displacement of fluorophore-labelled reference compound) for estimating binding affinity to human IL-23R.

[2] abbreviates: Table 2-7b, read-out: Ki IL-23R.
[3] abbreviates: Table 3-1, read-out: Ki hIL-23R.

pIC50, pKi: −log10 of the molar value. Like-named read-outs stand apart in the source and are kept apart here. Where a SMILES comes first, the peptide text is derived from it. A value given as a limit tells only on which side of the number the result lay.

Regarding `CC(=O)N[C@@H](CC(=O)O)C(=O)N[C@H]1CCCCNC(=O)CC[C@@H](C(=O)N[C@@H](CCCNC(=N)N)C(N)=O)NC(=O)[C@H](CC(C)C)NC(=O)[C@H](Cc2ccc3ccccc3c2)NC(=O)[C@H](Cc2c[nH]c3ccccc23)NC(=O)[C@@H]2CSCc3cccc(c3)CSC[C@H](NC(=O)[C@H](CO)NC1=O)C(=O)N[C@@H](Cc1c[nH]c3ccccc13)C(=O)N[C@@H](CCC(N)=O)C(=O)N2` [Compound 21, [Ac]-DK(1c)SC(2e)WQC(2e)W[2-Nal]LE(1c)R-[NH2]] (HELM PEPTIDE1{[ac].D.K.S.C.W.Q.C.W.[O=C([C@H](Cc1ccc2ccccc2c1)N[*:1])[*:2]].L.E.R.[am]}|CHEM1{[c1cc(C[*:1])cc(C[*:2])c1]}$PEPTIDE1,PEPTIDE1,3:R3-12:R3|PEPTIDE1,CHEM1,5:R3-1:R1|PEPTIDE1,CHEM1,8:R3-1:R2$$$V2.0), the pIC50 in test [1] (Table 2-7b) and in test [1] (Table 3-1) was under 6.00 in each case. The pKi (commonly the negative decadic logarithm of the Ki, by convention in mol/L) on human IL-23R (setting [2]) is 6.20.
For `CC(C)C[C@@H]1NC(=O)[C@H](Cc2ccc3ccccc3c2)NC(=O)[C@H](Cc2c[nH]c3ccccc23)NC(=O)[C@@H]2CSCC(=O)CSC[C@H](NC(=O)[C@H](CO)NC(=O)CCNC(=O)CC[C@@H](C(=O)N[C@@H](CCCNC(=N)N)C(N)=O)NC1=O)C(=O)N[C@@H](Cc1c[nH]c3ccccc13)C(=O)N[C@@H](CCC(N)=O)C(=O)N2` [Compound 36, [bAla](1c)*SC(2a)WQC(2a)W[2-Nal]LE(1c)R-[NH2]] (HELM PEPTIDE1{[bAla].S.C.W.Q.C.W.[O=C([C@H](Cc1ccc2ccccc2c1)N[*:1])[*:2]].L.E.R.[am]}|CHEM1{[O=C(C[*:1])C[*:2]]}$PEPTIDE1,CHEM1,3:R3-1:R1|PEPTIDE1,CHEM1,6:R3-1:R2|PEPTIDE1,PEPTIDE1,1:R1-10:R3$$$V2.0), in test [1] (Table 3-1), the negative-log IC50 (pIC50) (usually −log10 of the IC50, conventionally taken in molar units) was under 6.00. Also, the pKi at human IL-23R (setting [3]) is under 6.00.
In the case of `CC(C)C[C@@H]1NC(=O)[C@H](Cc2c[nH]c3ccccc23)NC(=O)[C@H](Cc2c[nH]c3ccccc23)NC(=O)[C@@H]2CSCC(=O)CSC[C@H](NC(=O)[C@H](CO)NC(=O)[C@H](CC(=O)O)NC(=O)[C@H](CCCNC(=N)N)NC1=O)C(=O)N[C@@H](Cc1c[nH]c3ccccc13)C(=O)N[C@@H](CCC(N)=O)C(=O)N2` [Compound 6, D(1c)*SC(2a)WQC(2a)WWLR(1c)*] (HELM PEPTIDE1{C.W.Q.C.W.W.L.R.D.S}|CHEM1{[O=C(C[*:1])C[*:2]]}$PEPTIDE1,CHEM1,1:R3-1:R1|PEPTIDE1,CHEM1,4:R3-1:R2|PEPTIDE1,PEPTIDE1,1:R1-10:R2$$$V2.0), in test [1] (Table 3-1), the pIC50 was under 6.00. Also, on human IL-23R (setting [3]), the negative logarithm of the Ki (pKi) was under 6.00.
For the compound `CC(C)C[C@@H]1NC(=O)[C@H](Cc2c[nH]c3ccccc23)NC(=O)[C@H](Cc2c[nH]c3ccccc23)NC(=O)[C@@H]2CCCCNC(=O)CC[C@H](NC(=O)[C@H](CO)NC(=O)[C@@H](NC(=O)[C@@H](N)CC(=O)O)CSCC(=O)CSC[C@@H](C(=O)N[C@@H](CCCNC(=N)N)C(N)=O)NC1=O)C(=O)N[C@@H](Cc1c[nH]c3ccccc13)C(=O)N[C@@H](CCC(N)=O)C(=O)N2` [Compound 5, H-DC(1a)SE(2c)WQK(2c)WWLC(1a)R-[NH2]] (HELM PEPTIDE1{D.C.S.E.W.Q.K.W.W.L.C.R.[am]}|CHEM1{[O=C(C[*:1])C[*:2]]}$PEPTIDE1,CHEM1,2:R3-1:R1|PEPTIDE1,CHEM1,11:R3-1:R2|PEPTIDE1,PEPTIDE1,4:R3-7:R3$$$V2.0), the pIC50 in test [1] (Table 3-1) was under 6.00. Further, at human IL-23R (setting [3]), the pKi was under 6.00.
In the case of `CC(C)C[C@@H]1NC(=O)[C@H](Cc2c[nH]c3ccccc23)NC(=O)[C@H](Cc2c[nH]c3ccccc23)NC(=O)[C@H](CO)NC(=O)[C@H](CCC(N)=O)NC(=O)[C@H](Cc2c[nH]c3ccccc23)NC(=O)[C@H](CO)NC(=O)[C@H](CO)NC(=O)[C@@H](NC(=O)[C@@H](N)CC(=O)O)CCC(=O)NCCCC[C@@H](C(=O)N[C@@H](CCCNC(=N)N)C(N)=O)NC1=O` [Ref 2, reference compound] (HELM PEPTIDE1{D.E.S.S.W.Q.S.W.W.L.K.R.[am]}$PEPTIDE1,PEPTIDE1,2:R3-11:R3$$$V2.0), the pIC50 in test [1] (Table 3-1) is under 6.00. Further, the pKi at human IL-23R (setting [3]) was under 6.00.
For the compound `CC(=O)N[C@@H](CC(=O)O)C(=O)N[C@H]1CCC(=O)NCCCC[C@@H](C(=O)N[C@@H](CCCNC(=N)N)C(N)=O)NC(=O)[C@H](CC(C)C)NC(=O)[C@H](C)NC(=O)[C@H](Cc2c[nH]c3ccccc23)NC(=O)[C@@H]2CSCC(=O)CSC[C@H](NC(=O)[C@H](CO)NC1=O)C(=O)N[C@@H](Cc1c[nH]c3ccccc13)C(=O)N[C@@H](CCC(N)=O)C(=O)N2` [Compound 15, [Ac]-DE(1c)SC(2a)WQC(2a)WALK(1c)R-[NH2]] (HELM PEPTIDE1{[ac].D.E.S.C.W.Q.C.W.A.L.K.R.[am]}|CHEM1{[O=C(C[*:1])C[*:2]]}$PEPTIDE1,PEPTIDE1,3:R3-12:R3|PEPTIDE1,CHEM1,5:R3-1:R1|PEPTIDE1,CHEM1,8:R3-1:R2$$$V2.0), the pIC50 in test [1] (Table 3-1) was under 6.00. Also, the pKi at human IL-23R (setting [3]) is under 6.00.
Consider `CSCC[C@@H]1NC(=O)[C@H](CO)NC(=O)[C@@H](NC(=O)[C@H](CC(=O)O)NC(C)=O)CCC(=O)NCCCC[C@@H](C(=O)N[C@@H](CCCNC(=N)N)C(N)=O)NC(=O)[C@H](CC(C)C)NC(=O)[C@H](Cc2c[nH]c3ccccc23)NC(=O)[C@H](Cc2c[nH]c3ccccc23)NC(=O)[C@H](CCSC)NC(=O)[C@H](CCC(N)=O)NC(=O)[C@H](Cc2c[nH]c3ccccc23)NC1=O` [Ref 4, reference compound] (HELM PEPTIDE1{[ac].D.E.S.M.W.Q.M.W.W.L.K.R.[am]}$PEPTIDE1,PEPTIDE1,3:R3-12:R3$$$V2.0), for which the negative-log IC50 (pIC50) in test [1] (Table 3-1) was under 6.00. Further, the pKi at human IL-23R (setting [3]) is under 6.00.
In the case of `CC(=O)N[C@@H](CC(=O)O)C(=O)N[C@H]1CCCCNC(=O)CC[C@@H](C(=O)N[C@@H](CCCNC(=N)N)C(N)=O)NC(=O)[C@H](CC(C)C)NC(=O)[C@H](Cc2ccc3ccccc3c2)NC(=O)[C@H](Cc2c[nH]c3ccccc23)NC(=O)[C@@H]2CSCc3ccccc3CSC[C@H](NC(=O)[C@H](CO)NC1=O)C(=O)N[C@@H](Cc1c[nH]c3ccccc13)C(=O)N[C@@H](CCC(N)=O)C(=O)N2` [Compound 20, [Ac]-DK(1c)SC(2d)WQC(2d)W[2-Nal]LE(1c)R-[NH2]] (HELM PEPTIDE1{[ac].D.K.S.C.W.Q.C.W.[O=C([C@H](Cc1ccc2ccccc2c1)N[*:1])[*:2]].L.E.R.[am]}|CHEM1{[c1ccc(C[*:2])c(C[*:1])c1]}$PEPTIDE1,PEPTIDE1,3:R3-12:R3|PEPTIDE1,CHEM1,5:R3-1:R1|PEPTIDE1,CHEM1,8:R3-1:R2$$$V2.0), the pIC50 in test [1] (Table 2-7b) was 7.10. Also, the pKi at human IL-23R (setting [2]) was 7.61.
Consider `CC(C)C[C@@H]1NC(=O)[C@H](Cc2c[nH]c3ccccc23)NC(=O)[C@H](Cc2c[nH]c3ccccc23)NC(=O)[C@@H]2CSCC(=O)CSC[C@H](NC(=O)[C@H](CO)NC(=O)[C@@H](NC(=O)[C@@H](N)CC(=O)O)CCC(=O)NCCCC[C@@H](C(=O)N[C@@H](CCCNC(=N)N)C(N)=O)NC1=O)C(=O)N[C@@H](Cc1c[nH]c3ccccc13)C(=O)N[C@@H](CCC(N)=O)C(=O)N2` [Compound 4, H-DE(1c)SC(2a)WQC(2a)WWLK(1c)R-[NH2]] (HELM PEPTIDE1{D.E.S.C.W.Q.C.W.W.L.K.R.[am]}|CHEM1{[O=C(C[*:1])C[*:2]]}$PEPTIDE1,PEPTIDE1,2:R3-11:R3|PEPTIDE1,CHEM1,4:R3-1:R1|PEPTIDE1,CHEM1,7:R3-1:R2$$$V2.0), for which the pIC50 in test [1] (Table 2-3b), in test [1] (Table 2-4b) and in test [1] (Table 2-5b) was under 6.00 each time. Also, the “potency depending on location of the amide bond in the [2,11] lactam bridge (in words)” value on human IL-23R (Compound 7 (amide closer to position 11) versus Compound 4 (closer to position 2), Table 2-3b) is listed as “less active”.
